Measured values: patent US6878269B2, “Device for body fluid purification and system for body fluid purification” (Kaneka Corporation, priority 1996, dated 2005)

Experiments:
[1] = system: β2-microglobulin or chemokines; assay: Adsorbing ability of immobilized compounds of various log P values; type: binding; settings: compound immobilized on carrier
Text: In discovering compounds effective for adsorbing substances related to malady in body fluid, in particular, for adsorbing β2-microglobulin or chemokines, compounds having various log P values have been examined in a state of being immobilized.

[2] = octanol-water system, found value; cited from earlier work

CCCCCCCCN [n-octylamine]
adsorbing ability for β2-microglobulin or chemokines [1]: enhanced to a great extent

CCCCCCCCCCCCCCCCCCN [octadecylamine]
adsorbing ability for β2-microglobulin or chemokines (guessed) ([1]; guessed and not tested): equivalent to or better than that of hexadecylamine

CCCCCCCCCCCCCCCCN [hexadecylamine]
adsorbing ability for β2-microglobulin or chemokines [1]: further enhanced

CCCCN [n-butylamine]
log P [2]: 0.97
